# Data taken from patent US8173360B2, “Cell death inhibitor” (Takeda Pharmaceutical Company Limited, priority 2002, dated 2012).
# Key:
# [1] = tested on: genes under control of Antioxidant response element (ARE); experiment: Gene expression analysis by DNA chip; type: cell-based, rat; conditions: for Increasing Rate of Expression: 21 hours, without compound = 1
# Procedure: After gently stiffing, the plate was washed 3 times with Medium 199 medium to remove serum. […] The medium was then removed and total RNA was recovered using RNeasy Mini Kit (manufactured by QIAGEN). Using the total RNA, exhaustive analysis of gene expression was performed on GeneChip arrays for expression analysis (Rat Genome U34A Arrays: manufactured by AFFYMETRIX). The increasing rate of expression of each gene was expressed in terms of the expression level with the addition of the compound, when the expression level without addition of any compound was made 1.
# [2] = tested on: primary cardiomyocytes derived from rat neonates; conditions: simvastatin 0.3 μM or atorvastatin 1 μM, 3 days
# Procedure: The primary cardiomyocytes derived from rat neonates obtained in EXPERIMENTAL EXAMPLE 2 were suspended in Medium 199 containing 10% fetal cow serum in 6×10^5 cells/ml, and the suspension was seeded on a 96-well plate in 0.1 mlwell, followed by incubation for a day in a CO2 incubator set at 37° C. and 5% CO2. After stirring with a micromixer (manufactured by Taiyo Kagaku Kogyo Co., Ltd.), the medium was replaced 3 times with serum-free Medium 199 to remove serum. […] Thereafter, fetal cow serum was added thereto to become 10%. After further incubation in a CO2 incubator set at 37° C. and 5% CO2 for about 17 hours, the viable cell count was determined using a cell count assay kit (manufactured by Dojin Chemical Laboratory) in which WST-8 was used as a chromogen, thereby to examine the inhibitory activity of myocardial cell death induced by the statin. The experiment described above was carried out independently in 3 runs. The viable cell count in each of the experimental groups was named the mean value (±SD) of the viable cell counts in each experimental group, when the viable cell count in the group with no statin added was made 1.
# [3] = tested on: heme oxygenase-1; experiment: Heme oxygenase-1 production-increasing activity (western blotting); type: cell-based, rat; conditions: for Increasing Rate of Production (heme oxygenase-1): 24 hours, without compound = 1
# Procedure: The plate was washed 3 times with Medium 199 medium to remove serum. Compound I was added to the plate, followed by incubation for 24 hours at 37° C. and 5% CO2. After completion of the incubation, the cardiomyocytes were washed once with PBS(−), and 100 μl of cell lysis buffer [10 mM Tris(hydroxymethyl)aminomethane, pH 7.4, 150 mM NaCl, 1 mM EDTA.2Na, 1 mM ethylene glycol-bis(β-aminoethylether]-N,N,N′,N′-tetraacetic acid, 0.5 mM (p-aminophenyl)methanesulfonyl fluoride hydrochloride, 200 μM sodium β-glycerophosphate n-hydrate, 20 mM NaF, 2 mM sodium diphosphate decahydrate, 10 μg/ml aprotinin, 10 μg/ml leupeptin, 1% Triton X-100, 0.5% Nonidet P40, 0.1% sodium dodesyl sulfate) was added thereto. After the cell debris was scraped from the plate using a cell scraper, the cell lysis buffer was recovered. The recovered cell lysis buffer was mixed with a sample buffer (Tris-SDS-ME Sample Buffer; manufactured by Daiichi Pure Chemicals Co., Ltd.) in an equal volume. The mixture was heat-treated at 95° C. for 5 minutes, followed by SDS polyacrylamide electrophoresis using Multigel (manufactured by Daiichi Pure Chemicals Co., Ltd.). Next, nitrocellulose membrane (Hybond-ECL; manufactured by Amersham Pharmacia Biotech) soaked in a blotting buffer [0.1 M Tris(hydroxymethyl)aminomethane, 0.192 M glycine, 20% ethanol] for at least 10 minutes, blotting filter paper, dialysis membrane and gel were set on Horize-Blot (manufactured by ATTO, Co.) and treated with 100 mA/gel (64 cm^2) for an hour to adsorb the protein in the gel onto the nitrocellulose membrane. Thereafter, the nitrocellulose membrane was soaked in a blocking buffer [TTBS buffer (20 mM Tris-HCl, pH 7.6, 0.137 M NaCl, 0.1% Tween-20) containing 5% skimmed milk powders] and stirred at room temperature for an hour for blocking. […] After completion of the reaction, the membrane was washed 3 times with TTBS buffer and the amount of protein was determined using a western blotting detection reagent (ECL+Plus; manufactured by Amersham) and Hyperfilm ECL (manufactured by Amersham). […]
# [4] = tested on: Normal human umbilical vein endothelial cells; experiment: Inhibitory activity against serum depletion-induced cell death of vascular smooth muscle; type: cell-based; conditions: serum-free MCDB131 medium, 3 days, WST-8
smiles,measurement,setting,value
"O=c1nc(-c2ccccn2)sc2ccccc12 [Compound 1, 2-(2-Pyridyl)-4H-1,3-benzothiazin-4-one]",Increasing Rate of Expression,[1]; Bilirunin-specific UDP-glucuronosyltransferase,5.2
same,Increasing Rate of Expression,[1]; Gamma-glutamylcysteine synthetase,2.4
same,Increasing Rate of Expression,[1]; Glutathione S-transferase Yb subunit,2.5
same,Increasing Rate of Expression,[1]; Glutathione S-transferase Yc1 subunit,2.1
same,Increasing Rate of Expression,[1]; Heme oxygenase-1,2.0
same,Increasing Rate of Expression,[1]; Liver glutathione S-transferase Ya subunit,11.6
same,Increasing Rate of Expression,[1]; Liver glutathione S-transferase Yc subunit,2.3
same,Increasing Rate of Expression,[1]; NAD(P)H-menadione oxidereductase,2.8
same,Increasing Rate of Expression,[1]; NAD(P)H: quinone reductase,9.4
same,Increasing Rate of Expression,"[1]; UDP-glucuronosyltransferase, exon 1",5.0
same,expression of the genes under control of Antioxidant response element (ARE),[1]; statement in words,enhances expression of the genes under control of Antioxidant response element (ARE)
same,inhibition of myocardial cell death induced by statin,[2],exhibits the activity of inhibiting myocardial cell death induced by the HMG-CoA reductase inhibitor
same,Increasing Rate of Production (heme oxygenase-1),[3]; 0.04 μM,1.6
same,Increasing Rate of Production (heme oxygenase-1),[3]; 0.4 μM,2.5
same,production amount of heme oxygenase-1,[3]; statement in words,increases the production amount of heme oxygenase-1
same,inhibition of cell death induced by serum depletion,[4],exhibits the activity of inhibiting vascular smooth muscle cell death induced by serum depletion
